Laboratory results taken from patent US20260130919A1 (priority 2023, published 2026).

Key:
[1] = cumulative dose of doxorubicin >200 mg/m^2, CHOP regimen, aggressive Non-Hodgkin Lymphoma patients; cited from earlier work
[2] = tested on: PTCL; conditions: anthracycline-based regimens; cited from earlier work
[3] = tested on: peripheral T-cell lymphoma (PTCL); test: Randomized Phase 2 dose finding study of Pralatrexate-COP versus CHOP; set-up: species or system human; conditions: in vivo, iv
Experimental: This experiment was performed to identify the suitable dose of Pralatrexate that would be optimal in polychemotherapy for the next study (phase-III) based on safety and ORR (objective response rate) at 3 months. Initially, a lower dose of 20 mg/m^2 was compared to 30 mg/m^2 combined with COP. Therefore, these two dose levels were assigned randomly to 20 patients in addition to COP (Pralatrexate-COP). […] Dose effect on polyglutamate-Pralatrexate, DNA hypomethylation or H3-acetylation was evaluated in this part of the study as a surrogate for PD (pharmacodynamics) drug exposure. […] Further objective of dose finding study was also to evaluate the safety profiles for patients with newly diagnosed PTCL treated with Pralatrexate-COP compared to CHOP alone.
In the dose finding study, each investigational arm was having two dose levels which was compared with CHOP as reference. Treatment was randomized in three arms, Group 1a (Pralatrexate-COP) Pralatrexate 20 mg/m^2, Group 1b Pralatrexate 30 mg/m^2, all added to standard CHOP or COP respectively, and Group 2 for CHOP alone. […]

| Compound | patients with cardiac events [1] [%] | survival impact of inclusion in a polychemotherapy regimen [2] | effect in combination with COP [3] |
| --- | --- | --- | --- |
| COc1cccc2c1C(=O)c1c(O)c3c(c(O)c1C2=O)C[C@@](O)(C(=O)CO)C[C@@H]3O[C@H]1C[C@H](N)[C@H](O)[C@H](C)O1 [Doxorubicin] | 27 | not associated with a survival improvement |  |
| C#CCC(Cc1cnc2nc(N)nc(N)c2n1)c1ccc(C(=O)N[C@@H](CCC(=O)O)C(=O)O)cc1 (mixture of isomers) [Pralatrexate] |  |  | synergistic effect |
